# Results taken from ChEMBL document CHEMBL1201862, “PubChem BioAssay data set” (2004).
#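 Assay format: 96-well plates, 48-hour exposure. GI50 = concentration required for 50% inhibition of growth.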 Activity calls are given as the source filed them. No stated cut-off is given here; in the data, active = GI50 up to about 1.1 µM and inactive = higher.
# How the values were obtained:
# Assay in all cases: growth of human tumour cells (NCI), 48 h
# [1] = test system: UACC-62
# [2] = test system: EKVX
# [3] = test system: SNB-19
# [4] = test system: CAKI-1
# [5] = test system: OVCAR-5
# [6] = test system: ACHN
# [7] = test system: HOP-62
# [8] = test system: HCT-15
# [9] = test system: OVCAR-3
# [10] = test system: RPMI-8226
# [11] = test system: MDA-MB-231
# [12] = test system: K562
# [13] = test system: NCI-H460
# [14] = test system: SNB-75
# [15] = test system: Hs-578T
# [16] = test system: SK-MEL-2
# [17] = test system: HCT-116
# [18] = test system: SK-OV-3
# [19] = test system: SK-MEL-28
# [20] = test system: A549
# [21] = test system: DU-145
# [22] = test system: SK-MEL-5
# [23] = test system: BT-549
# [24] = test system: MDA-N
# [25] = test system: RXF 393
# [26] = test system: T47D
# [27] = test system: PC-3
# [28] = test system: SW-620
# [29] = test system: OVCAR-4
# [30] = test system: A498
# [31] = test system: COLO 205
# [32] = test system: HT-29
# [33] = test system: SF-295
# [34] = test system: KM12
# [35] = test system: NCI/ADR-RES
# [36] = test system: SF-268
# [37] = test system: SF-539
# [38] = test system: UACC-257
# [39] = test system: SN12C
# [40] = test system: NCI-H522
# [41] = test system: NCI-H23
# [42] = test system: MCF7
# [43] = test system: MDA-MB-435
# [44] = test system: MOLT-4
# [45] = test system: U-251
# [46] = test system: UO-31
# [47] = test system: OVCAR-8
# [48] = test system: TK-10
# [49] = test system: M14
# [50] = test system: 786-0
# [51] = test system: HL-60
# [52] = test system: LOX IMVI
# [53] = test system: CCRF-CEM
# [54] = test system: IGROV-1
# [55] = test system: HOP-92
# [56] = test system: SR
# [57] = test system: HCC 2998
structure (smiles),measurement,setting,value
CCOC(=O)C1=COC(C)(C)CC1=O,GI50,[1],> 100 µM (inactive)
same,GI50,[2],> 100 µM (inactive)
same,GI50,[3],> 100 µM (inactive)
same,GI50,[4],> 100 µM (inactive)
same,GI50,[5],> 100 µM (inactive)
same,GI50,[6],> 100 µM (inactive)
same,GI50,[7],> 100 µM (inactive)
same,GI50,[8],> 100 µM
same,GI50,[9],> 100 µM (inactive)
same,GI50,[10],> 100 µM (inactive)
same,GI50,[11],> 100 µM (inactive)
same,GI50,[12],> 100 µM (inactive)
same,GI50,[13],> 100 µM (inactive)
same,GI50,[14],> 100 µM (inactive)
same,GI50,[15],> 100 µM (inactive)
same,GI50,[16],> 100 µM (inactive)
same,GI50,[17],> 100 µM (inactive)
same,GI50,[18],> 100 µM (inactive)
same,GI50,[19],> 100 µM (inactive)
same,GI50,[20],> 100 µM (inactive)
same,GI50,[21],> 100 µM (inactive)
same,GI50,[22],> 100 µM (inactive)
same,GI50,[23],> 100 µM (inactive)
same,GI50,[24],> 100 µM (inactive)
same,GI50,[25],> 100 µM (inactive)
same,GI50,[26],> 100 µM (inactive)
same,GI50,[27],> 100 µM (inactive)
same,GI50,[28],> 100 µM (inactive)
same,GI50,[29],> 100 µM (inactive)
same,GI50,[30],> 100 µM (inactive)
same,GI50,[31],> 100 µM (inactive)
same,GI50,[32],> 100 µM (inactive)
same,GI50,[33],> 100 µM (inactive)
same,GI50,[34],> 100 µM (inactive)
same,GI50,[35],> 100 µM (inactive)
same,GI50,[36],> 100 µM (inactive)
same,GI50,[37],> 100 µM (inactive)
same,GI50,[38],> 100 µM (inactive)
same,GI50,[39],> 100 µM (inactive)
same,GI50,[40],> 100 µM (inactive)
same,GI50,[41],> 100 µM (inactive)
same,GI50,[42],> 100 µM (inactive)
same,GI50,[43],> 100 µM (inactive)
same,GI50,[44],> 100 µM (inactive)
same,GI50,[45],> 100 µM (inactive)
same,GI50,[46],> 100 µM (inactive)
same,GI50,[47],> 100 µM (inactive)
same,GI50,[48],> 100 µM (inactive)
same,GI50,[49],> 100 µM (inactive)
same,GI50,[50],> 100 µM (inactive)
O=C(c1c(F)c(F)c(F)c(F)c1F)n1c(=S)n(C(=O)c2c(F)c(F)c(F)c(F)c2F)c2ccccc21,GI50,[1],24.7 µM (inactive)
same,GI50,[3],> 100 µM (inactive)
same,GI50,[5],> 100 µM (inactive)
same,GI50,[6],> 100 µM (inactive)
same,GI50,[51],12.9 µM (inactive)
same,GI50,[52],35.7 µM (inactive)
same,GI50,[7],> 100 µM (inactive)
same,GI50,[8],> 100 µM
same,GI50,[10],44.4 µM (inactive)
same,GI50,[11],> 100 µM (inactive)
same,GI50,[12],22.2 µM (inactive)
same,GI50,[13],> 100 µM (inactive)
same,GI50,[14],> 100 µM (inactive)
same,GI50,[53],12.3 µM (inactive)
same,GI50,[15],> 100 µM (inactive)
same,GI50,[16],> 100 µM (inactive)
same,GI50,[17],> 100 µM (inactive)
same,GI50,[18],> 100 µM (inactive)
same,GI50,[19],59.2 µM (inactive)
same,GI50,[21],80.5 µM (inactive)
same,GI50,[22],> 100 µM (inactive)
same,GI50,[23],> 100 µM (inactive)
same,GI50,[24],> 100 µM (inactive)
same,GI50,[26],82.4 µM (inactive)
same,GI50,[27],64 µM (inactive)
same,GI50,[28],46.5 µM (inactive)
same,GI50,[29],95.5 µM (inactive)
same,GI50,[54],> 100 µM (inactive)
same,GI50,[31],49.9 µM (inactive)
same,GI50,[32],> 100 µM (inactive)
same,GI50,[33],> 100 µM (inactive)
same,GI50,[34],> 100 µM (inactive)
same,GI50,[36],39.9 µM (inactive)
same,GI50,[37],> 100 µM (inactive)
same,GI50,[38],> 100 µM (inactive)
same,GI50,[39],> 100 µM (inactive)
same,GI50,[55],> 100 µM (inactive)
same,GI50,[56],39.9 µM (inactive)
same,GI50,[42],69.8 µM (inactive)
same,GI50,[57],> 100 µM (inactive)
same,GI50,[43],> 10 µM (inactive)
same,GI50,[44],20 µM (inactive)
same,GI50,[45],> 100 µM (inactive)
same,GI50,[46],> 100 µM (inactive)
same,GI50,[47],> 100 µM (inactive)
same,GI50,[48],> 100 µM (inactive)
same,GI50,[49],> 100 µM (inactive)
same,GI50,[50],> 100 µM (inactive)
